Laboratory results reported in patent EP4624457A1, “I[…] DERIVATIVES, I[…] NEURODEGENERATIVE DISEASES” (Centre National de la Recherche Scientifique, priority 2024, dated 2025).

Key:
[1] = biological target: T1, neuronal α3β2 nAChR subtype (Rattus norvegicus, UniProt P04757+P12390); assay: Two-electrode voltage clamp electrophysiology on Xenopus laevis oocytes expressing the α3β2 nAChR; type: cell-based; conditions: portimine 100 nM - 1 mM for 45 seconds; stated for the three nAChR subtypes tested
T1 construct: expressed in transfected cells; host or cells: Xenopus laevis oocytes injected with mRNA
Description: • Figure 1 represents the chemical structure of ingrilimine according to compound (Illa) formula. • Figure 2 represents the cytotoxic activity of ingrilimine. A2780 ovarian and HT29 colorectal carcinoma cells were grown in RPMI 1640 supplemented with 10% fetal calf serum (FCS) and 1% glutamine. U87-MG glioblastoma cells were grown in Dulbecco minimal essential medium containing 4.5 g/L glucose, 10% FCS and 1% glutamine at 37 °C in a humidified atmosphere containing 5% CO2. For IC50 determination, the cells were seeded in 96-well plates (3 × 10^3 cells/well) containing 90 µL of growth medium. After 24 h of culture, the cells were treated with ingrilimine at 10 different final concentrations. Cell viability was determined by luminescence after 72 h incubation. (a) Effect of ingrilimine on A2780 ovarian carcinoma cells. (b) Effect of ingrilimine on U87-MG glioblastoma cells. […] Sector Q normal cells that accumulated the JC-1 dye (fluorescence emission 590 nm). […] Changes in fluorescence emission were recorded by flow cytometry using the JC-1 mithocondrial membrane potential-dependent fluorescent dye. […] Phosphatidylcholine exposure in A2780 cell was quantified by flow cytometry using FITC-Annexin V. Dead or necrotic cells were detected using the vital dye propridium iodide. […]

[2] = system: cancer cell lines; conditions: literature (Tang et al. 2023; Fribley et al. 2019); cited from earlier work
[3] = system: Jurkat cells; conditions: 50 nM for 6 h; cited from earlier work

T1 sequence (P12390 25-500): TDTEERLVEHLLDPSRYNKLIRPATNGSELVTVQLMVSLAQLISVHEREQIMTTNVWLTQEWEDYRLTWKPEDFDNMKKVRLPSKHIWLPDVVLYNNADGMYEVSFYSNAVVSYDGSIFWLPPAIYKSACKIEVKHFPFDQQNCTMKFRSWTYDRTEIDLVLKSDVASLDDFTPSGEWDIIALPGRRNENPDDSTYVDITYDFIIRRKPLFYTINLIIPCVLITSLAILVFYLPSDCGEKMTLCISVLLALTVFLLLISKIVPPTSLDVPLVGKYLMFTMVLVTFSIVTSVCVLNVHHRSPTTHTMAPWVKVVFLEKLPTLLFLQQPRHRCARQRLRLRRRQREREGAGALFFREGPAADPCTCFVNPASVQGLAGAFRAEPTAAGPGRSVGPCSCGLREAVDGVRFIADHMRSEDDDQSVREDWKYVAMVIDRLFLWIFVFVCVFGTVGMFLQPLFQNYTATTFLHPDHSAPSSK
T1 sequence (P04757 26-499): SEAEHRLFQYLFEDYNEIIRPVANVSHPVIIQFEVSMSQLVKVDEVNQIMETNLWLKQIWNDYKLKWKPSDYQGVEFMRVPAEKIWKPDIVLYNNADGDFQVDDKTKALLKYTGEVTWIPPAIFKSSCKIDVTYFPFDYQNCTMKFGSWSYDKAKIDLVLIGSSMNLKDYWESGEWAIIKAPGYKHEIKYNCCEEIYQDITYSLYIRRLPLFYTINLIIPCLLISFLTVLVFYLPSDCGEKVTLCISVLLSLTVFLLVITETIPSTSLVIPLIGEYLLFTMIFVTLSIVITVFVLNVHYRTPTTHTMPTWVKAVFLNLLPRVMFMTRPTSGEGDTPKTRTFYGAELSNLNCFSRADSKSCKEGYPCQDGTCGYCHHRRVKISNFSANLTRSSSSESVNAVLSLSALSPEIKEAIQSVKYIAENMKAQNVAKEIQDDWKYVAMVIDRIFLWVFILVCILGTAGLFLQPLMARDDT

C=CC1=C[C@@H]2[C@@H]3O[C@]4(CC[C@H](O4)[C@@H](C)C[C@@H](O)C3=O)C[C@H](O)C3=NCC[C@@]32CC1 [Portimine-A]
inhibition of the acetylcholine-evoked current, concentration range [1]: micromolar range
cytotoxic activities, order of magnitude [2]: ~10^-9 M
annexin V-positive cells [3]: 50%
viable cells [3]: 50%
